{
  "source": "ChEMBL document CHEMBL1131057",
  "about": "“Peptidomimetic growth hormone secretagogues. Design considerations and therapeutic potential” (J Med Chem, 1998)",
  "key": {"Rattus norvegicus [1]": {"species_on_record": "Rattus norvegicus", "experiment": "In vitro efficacy was evaluated for growth hormone release"}, "Oxytocin receptor": {"target": "T1, Oxytocin receptor (Homo sapiens, UniProt P30559)", "T1 sequence (P30559 whole entry)": "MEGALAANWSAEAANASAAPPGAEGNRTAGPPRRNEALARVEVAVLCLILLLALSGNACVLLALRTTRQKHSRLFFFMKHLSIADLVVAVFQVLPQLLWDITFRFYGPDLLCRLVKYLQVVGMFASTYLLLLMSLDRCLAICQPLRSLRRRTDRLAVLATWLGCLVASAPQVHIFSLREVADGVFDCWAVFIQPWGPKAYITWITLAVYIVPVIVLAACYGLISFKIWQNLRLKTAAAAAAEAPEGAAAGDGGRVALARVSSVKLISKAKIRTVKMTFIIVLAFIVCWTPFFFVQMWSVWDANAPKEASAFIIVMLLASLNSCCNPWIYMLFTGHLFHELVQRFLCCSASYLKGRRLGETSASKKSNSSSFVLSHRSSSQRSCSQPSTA", "experiment": "Antagonistic activity against Oxytocin receptor", "type": "functional"}, "Rattus norvegicus [2]": {"species_on_record": "Rattus norvegicus", "experiment": "compound was evaluated for GH release in the rat", "type": "functional, organism-based"}, "Rattus norvegicus [3]": {"species_on_record": "Rattus norvegicus", "experiment": "compound was evaluated for GH release in the rat pituitary cell culture assay", "type": "functional", "details": "Pituitary gland cell"}, "[4]": {"target": "Growth hormone secretagogue receptor type 1 (Homo sapiens, UniProt Q92847)", "sequence (Q92847 whole entry)": "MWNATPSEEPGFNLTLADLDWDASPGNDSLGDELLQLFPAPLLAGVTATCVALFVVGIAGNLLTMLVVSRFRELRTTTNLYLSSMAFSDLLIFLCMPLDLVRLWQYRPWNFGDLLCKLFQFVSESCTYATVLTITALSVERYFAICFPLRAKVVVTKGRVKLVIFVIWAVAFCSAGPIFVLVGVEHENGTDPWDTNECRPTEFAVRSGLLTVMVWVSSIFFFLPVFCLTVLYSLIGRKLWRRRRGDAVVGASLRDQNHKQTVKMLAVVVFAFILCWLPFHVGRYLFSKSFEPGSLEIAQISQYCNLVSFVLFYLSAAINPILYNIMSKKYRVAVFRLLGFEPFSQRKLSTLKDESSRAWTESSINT", "experiment": "Compound was evaluated for GH release for effect on human GH secretagogue receptor", "type": "functional"}, "Rattus norvegicus [5]": {"species_on_record": "Rattus norvegicus", "experiment": "compound was evaluated for GH release in the rat pituitary cell", "type": "functional", "details": "Pituitary gland cell"}, "[6]": {"experiment": "Half-life period measured in dog", "type": "ADME, organism-based, Canis lupus familiaris", "details": "in vivo"}, "[7]": {"experiment": "The intrinsic potency studied extensively in animals", "type": "functional"}, "Sus scrofa [8]": {"species_on_record": "Sus scrofa", "experiment": "Compound was measured for IGF-1 increases in swine on days 4, 7, 10, and 14 approximately", "type": "functional"}, "Sus scrofa [9]": {"species_on_record": "Sus scrofa", "experiment": "Compound was measured for elevated mean plasma IGF-1 (insulin like growth factor) concentrations in Swine", "type": "functional, organism-based"}, "Canis familiaris [10]": {"test_system": "Canis familiaris", "experiment": "Loss of body weight in dog is evaluated after compound was administered perorally to dog at a dose 5 mg/kg, once daily (control (wt) = 1.13+/-0.19)", "type": "functional, Canis lupus familiaris", "details": "route oral"}, "Rattus norvegicus [11]": {"species_on_record": "Rattus norvegicus", "experiment": "compound was evaluated for GH release in the rat; 10-30 ng/mL", "type": "functional, organism-based"}, "Rattus norvegicus [12]": {"test_system": "Rattus norvegicus", "experiment": "Compound was tested for effective dose rquired for GH release following iv administration to 4-week old anesthetized Sprague-Dawley rats", "type": "functional"}, "Homo sapiens": {"species_on_record": "Homo sapiens", "experiment": "compound was evaluated for GH release", "type": "functional, organism-based"}, "Rattus norvegicus [13]": {"species_on_record": "Rattus norvegicus", "experiment": "compound was evaluated for GH release in rat", "type": "functional"}, "Rattus norvegicus [14]": {"test_system": "Rattus norvegicus", "experiment": "Compound was measured for elevated levels of GH release in infant rats after administration subcutaneously at 300 ug/kg", "type": "functional, organism-based"}, "Canis familiaris [15]": {"test_system": "Canis familiaris", "experiment": "Compound is evaluated for elevated GH in beagles with intravenous dose", "type": "functional", "details": "Canis lupus familiaris"}, "[16]": {"experiment": "Oral bioavailability measured in dogs", "type": "ADME, organism-based, Canis lupus familiaris", "details": "dog, in vivo"}, "Rattus norvegicus [17]": {"species_on_record": "Rattus norvegicus", "experiment": "The concentration of binding sites was evaluated", "type": "functional"}, "Canis familiaris [18]": {"species_on_record": "Canis familiaris", "experiment": "Compound is evaluated for elevated GH in beagles with peroral dose", "type": "functional", "details": "Canis lupus familiaris, po"}, "Rattus norvegicus [19]": {"species_on_record": "Rattus norvegicus", "experiment": "Compound was evaluated for binding affinity, which binds with high affinity to membranes isolated from rat hypothalamus", "type": "functional"}, "Sus scrofa [20]": {"species_on_record": "Sus scrofa", "experiment": "Limited capacity to porcine pituitary membranes was evaluated", "type": "functional"}, "[21]": {"experiment": "Half-life period measured in dogs", "type": "ADME, organism-based, Canis lupus familiaris", "details": "dog, in vivo"}, "Rattus norvegicus [22]": {"species_on_record": "Rattus norvegicus", "experiment": "In Vitro evaluation for growth hormone release from the pituitary incubates", "type": "functional"}, "[23]": {"experiment": "Clearance rate was evaluated in rats", "type": "ADME, organism-based", "details": "rat, in vivo; read-out: Clearance rate"}, "[24]": {"experiment": "Half-life was evaluated in rats", "type": "ADME, organism-based", "details": "rat, in vivo"}, "Rattus norvegicus [25]": {"test_system": "Rattus norvegicus", "experiment": "Compound was measured as maximal GH release which showed iv potency and efficacy", "type": "functional, organism-based"}},
  "note": "Where a SMILES comes first, the peptide text is derived from it. [ ]: non-standard residue; d: D form. dTrp(2-Me) = Cc1[nH]c2ccccc2c1C[C@@H](N)C(=O)O; Trp(2-Me) = Cc1[nH]c2ccccc2c1C[C@H](N)C(=O)O; d2Nal = N[C@H](Cc1ccc2ccccc2c1)C(=O)O; 3Amb = NCc1cccc(C(=O)O)c1; GABA = NCCCC(=O)O",
  "data": [
    {"smiles": "C[C@@H](O)CN1CCC[C@@H](C(=O)NC2CC3CCC2(CS(=O)(=O)N2CCC4(CCc5ccccc54)CC2)C3(C)C)C1", "note": "(some centres undefined)", "values": [
      {"measurement": "EC50", "setting": "Rattus norvegicus [1]", "result": 90, "unit": "nM"},
      {"measurement": "IC50", "setting": "Oxytocin receptor", "result": 130, "unit": "nM"}
    ]},
    {"smiles": "NCCCC[C@H](NC(=O)[C@H](Cc1ccccc1)NC(=O)[C@@H](Cc1ccc2ccccc2c1)NC(=O)[C@@H](Cc1ccc2ccccc2c1)NC(=O)C1CCNCC1)C(N)=O", "values": [
      {"measurement": "EC50", "setting": "Rattus norvegicus [2]", "result": 0.18, "unit": "nM"}
    ]},
    {"smiles": "CNC(=O)Nc1ccccc1-c1ccc(CN2C(=O)[C@H](NC(=O)CC(C)(C)N)CCc3ccccc32)cc1", "values": [
      {"measurement": "EC50", "setting": "Rattus norvegicus [3]", "result": 50, "unit": "nM"}
    ]},
    {"smiles": "NC(=O)CN(CCc1ccccc1)C(=O)[C@@H](Cc1ccc2ccccc2c1)NC(=O)[C@@H](Cc1ccc2ccccc2c1)NC(=O)C1CCNCC1", "values": [
      {"measurement": "EC50", "setting": "[4]", "result": 0.34, "unit": "nM"}
    ]},
    {"smiles": "CSCC[C@@H](NC(=O)[C@H](Cc1ccccc1)NC(=O)CNC(=O)[C@H](Cc1c[nH]c2ccccc12)NC(=O)[C@@H](N)Cc1ccc(O)cc1)C(N)=O", "values": [
      {"measurement": "Concentration", "setting": "Rattus norvegicus [5]", "result": 10, "unit": "µg/mL"}
    ]},
    {"smiles": "CCOC(=O)[C@H]1CC2(CCN(C(=O)[C@@H](CCCc3ccccc3)NC(=O)C(C)(C)N)CC2)c2ccccc21", "values": [
      {"measurement": "EC50", "setting": "Rattus norvegicus [3]", "result": 1.9, "unit": "nM"},
      {"measurement": "half-life", "setting": "[6]", "result": 1.7, "unit": "h"}
    ]},
    {"smiles": "CC(C)(N)C(=O)N[C@H](CCCc1ccccc1)C(=O)N1CCC2(CC1)CN(S(C)(=O)=O)c1ccccc12", "values": [
      {"measurement": "EC50", "setting": "[7]", "result": 1.5, "unit": "nM"},
      {"measurement": "Increase", "setting": "Sus scrofa [8]", "result": 60, "unit": "%"},
      {"measurement": "Plasma concentration", "setting": "Sus scrofa [9]", "result": 62, "unit": "%"},
      {"measurement": "Body weight", "setting": "Canis familiaris [10]", "result": 0.21, "unit": "kg"}
    ]},
    {"smiles": "CC(C)(N)C(=O)N[C@H](Cc1c[nH]c2ccccc12)C(=O)N1CCc2ccc(S(N)(=O)=O)cc2C1", "values": [
      {"measurement": "EC50", "setting": "Rattus norvegicus [3]", "result": 3, "unit": "nM"}
    ]},
    {"smiles": "C[C@H](NC(=O)[C@H](Cc1c[nH]c2ccccc12)NC(=O)[C@@H](N)Cc1ccc(O)cc1)C(=O)N[C@@H](Cc1c[nH]c2ccccc12)C(=O)N[C@H](Cc1ccccc1)C(N)=O", "values": [
      {"measurement": "Concentration", "setting": "Rattus norvegicus [11]", "result": 30, "unit": "ng/mL"}
    ]},
    {"smiles": "CN(C)S(=O)(=O)c1ccc2c(c1)CN(C(=O)[C@@H](Cc1c[nH]c3ccccc13)NC(=O)C(C)(C)N)CC2", "values": [
      {"measurement": "EC50", "setting": "Rattus norvegicus [3]", "result": 30, "unit": "nM"},
      {"measurement": "ED50", "setting": "Rattus norvegicus [12]", "result": 3, "unit": "mg/kg"}
    ]},
    {"smiles": "C[C@@H]1NC(=O)[C@H](Cc2ccc3ccccc3c2)NC(=O)[C@@H](N)CCCCNC(=O)CC[C@H](C(=O)N[C@@H](CCCCN)C(N)=O)NC(=O)[C@@H](Cc2ccccc2)NC(=O)[C@@H](Cc2c[nH]c3ccccc23)NC1=O", "values": [
      {"measurement": "EC50", "setting": "Homo sapiens", "result": 0.43, "unit": "nM"}
    ]},
    {"smiles": "Cc1[nH]c2ccccc2c1C[C@@H](NC(=O)[C@@H](N)Cc1c[nH]cn1)C(=O)N[C@@H](C)C(=O)N[C@@H](Cc1c[nH]c2ccccc12)C(=O)N[C@H](Cc1ccccc1)C(=O)N[C@@H](CCCCN)C(N)=O", "note": "[EXAMORELIN] (H-H[dTrp(2-Me)]AW[dF]K-NH2)", "values": [
      {"measurement": "Activity", "setting": "Rattus norvegicus [13]", "result": 104, "unit": "ng/mL"}
    ]},
    {"smiles": "Cc1[nH]c2ccccc2c1C[C@H](NC(=O)[C@@H](Cc1c(C)[nH]c2ccccc12)NC(=O)[C@@H](Cc1c(C)[nH]c2ccccc12)NC(=O)CCCN)C(=O)N[C@@H](CCCCN)C(N)=O", "note": "(H-[GABA][dTrp(2-Me)][dTrp(2-Me)][Trp(2-Me)]K-NH2)", "values": [
      {"measurement": "Concentration", "setting": "Rattus norvegicus [14]", "result": 200, "unit": "ng/mL"}
    ]},
    {"smiles": "CC(C)(N)C(=O)N[C@H](COCc1ccccc1)C(=O)N1CCC2(CC1)CN(S(C)(=O)=O)c1ccccc12", "note": "[IBUTAMOREN]", "values": [
      {"measurement": "MED", "setting": "Canis familiaris [15]", "result": 0.025, "unit": "mg/kg"},
      {"measurement": "bioavailability", "setting": "[16]", "result": "> 60", "unit": "%"},
      {"measurement": "Bmax", "setting": "Rattus norvegicus [17]", "result": 8, "unit": "fmol/mg"},
      {"measurement": "MED", "setting": "Canis familiaris [18]", "result": 0.125, "unit": "mg/kg"},
      {"measurement": "Kd", "setting": "Rattus norvegicus [19]", "result": 0.17, "unit": "nM"},
      {"measurement": "Bmax (fM (mg of protein)-1)", "setting": "Sus scrofa [20]", "result": 8},
      {"measurement": "half-life", "setting": "[21]", "result": 4.7, "unit": "h"},
      {"measurement": "EC50", "setting": "Rattus norvegicus [22]", "result": 1.3, "unit": "nM"}
    ]},
    {"smiles": "NCCCC[C@H](NC(=O)[C@@H](Cc1ccccc1)NC(=O)[C@@H](Cc1ccc2ccccc2c1)NC(=O)c1cccc(CN)c1)C(N)=O", "note": "(H-[3Amb][d2Nal][dF]K-NH2)", "values": [
      {"measurement": "EC50", "setting": "Rattus norvegicus [3]", "result": 7, "unit": "nM"}
    ]},
    {"smiles": "CC(C)(CC(=O)N[C@@H]1CCc2ccccc2N(Cc2ccc(-c3ccccc3C(N)=O)cc2)C1=O)NC[C@H](O)CO", "values": [
      {"measurement": "EC50", "setting": "Rattus norvegicus [1]", "result": 3, "unit": "nM"}
    ]},
    {"smiles": "CC1(C)C2CCC1(CS(=O)(=O)N1CCC3(CCc4ccccc43)CC1)C(NC(=O)C1CCCNC1)C2", "note": "[L-368112]", "values": [
      {"measurement": "EC50", "setting": "Rattus norvegicus [1]", "result": 300, "unit": "nM"},
      {"measurement": "IC50", "setting": "Oxytocin receptor", "result": 68, "unit": "nM"}
    ]},
    {"smiles": "C[C@H](NC(=O)[C@@H](Cc1c[nH]c2ccccc12)NC(=O)CCc1c[nH]cn1)C(=O)N[C@@H](Cc1c[nH]c2ccccc12)C(=O)N[C@H](Cc1ccccc1)C(=O)N[C@H](CO)CCCCN", "values": [
      {"measurement": "clearance", "setting": "[23]", "result": 2.34, "unit": "L/h/kg"},
      {"measurement": "half-life", "setting": "[24]", "result": 0.183, "unit": "h"},
      {"measurement": "EC50", "setting": "Rattus norvegicus [25]", "result": 5, "unit": "nM"}
    ]}
  ]
}
